Literature values in patent publication US11229230B2, “Antioxidant-enriched multivitamin composition and methods of use” (Callion Pharma, LLC, priority 2016, dated 2022).

How the values were obtained:
cystic fibrosis = settings: oral treatment, Phase II clinical study
cystic fibrosis patients = settings: inhaled

| Structure (SMILES) | lung function (cystic fibrosis) | effectiveness in cystic fibrosis (cystic fibrosis patients) |
| --- | --- | --- |
| CC(=O)N[C@@H](CS)C(=O)O [N-acetylcysteine] | did not improve lung function |  |
| N[C@@H](CCC(=O)N[C@@H](CS)C(=O)NCC(=O)O)C(=O)O [glutathione] |  | has not been effective |
